Test results reported in article PMC7932521, “2-aminobenzimidazoles for leishmaniasis: From initial hit discovery to in vivo profiling” (PLoS Neglected Tropical Diseases, 2021).
pIC50: −log10 of the molar value. Values after ≈ are worked out from the molar mass of the structure shown. Read-outs that look alike come from different tables or passages of the source.

What was measured:
[1] = Parallel artificial membrane permeability assay (PAMPA); assay type: in vitro ADME; conditions: S1 Data; for Papp at 5 h, 10 μM: PAMPA, read-out: PAMPA Pe
Description: To determine the passive permeability of the compounds, a 96-well plate containing membranes pre-coated with lipids (Corning Gentest # 353015) was used. The solutions of the compounds were prepared by diluting the stock solutions (10mM) in phosphate buffered saline (PBS) pH 6.5 at a final concentration of 10μM. The solutions diluted in PBS pH 6.5 were then added to the donor portion of the plate (300 μl/well), while PBS pH 7.4 (200 μl/well) was added to the acceptor portion. The two portions of the plate were then coupled, and the system was incubated for 5 h at 37°C. At the end of the incubation, samples were collected from the donor and acceptor plates, and then added to plates containing quench solution (10% water and 90% methanol: acetonitrile (50:50) + 50 nM tolbutamide). The final concentrations of compounds in the donor, acceptor, and initial solution (T0) wells were analyzed using LC-MS/MS. The results were used to calculate an effective permeability (Pe) value. The PAMPA assay was performed in triplicate (n = 3).

[2] = system: MRC-5 cells; experiment: MRC-5 cytotoxicity; assay type: cell-based; conditions: S1 Data
[3] = Mouse liver microsomal stability; assay type: in vitro ADME; conditions: for microsomal CLint at 0.5 μM: CD1, mouse, liver microsomes, pH 7.4, S1 Data, read-out: MLM CLint
Description: The metabolic stability of the compounds was evaluated in human (pool of 200 donors, XenoTech) and mouse liver microsomes (CD1 mouse, GIBCO). Test compounds were prepared at a concentration of 0.5 μM and incubated with 0.25 mg/mL liver microsomes at pH 7.4 and 37°C. The reaction was started by addition of NADPH at […]. Samples were taken at 0, 5, 10, 15, 20 and 30 minutes. The reaction was stopped by the addition of acetonitrile:methanol (1:1) containing an internal standard (tolbutamide at 50 nM). Compounds were quantified by liquid chromatography triple quadrupole mass spectrometry (LC-MS/MS). Peak area ratios (analyte/internal standard) were converted to % remaining using the area ratio at time 0 as 100%. Half-life (t1/2 = ln(2)/k) in minutes and intrinsic clearance (Clint = k x 1000/(0.25)) in μL/min/mg were calculated using a non-linear regression from % remaining versus incubation time. From this plot, the slope (k) was determined. The analysis conditions were: analytical column (Gemini C18, […], Phenomenex), electrospray ionization source (ESI) in positive and negative mode, mobile phase A (water + 0.1% formic acid) and B (acetonitrile + 0.1% formic acid), flow rate of 0.7 mL/min.

[4] = Experimental distribution coefficient (eLogD); assay type: physicochemical; conditions: for chromatographic logD: reverse stationary phase HPLC column (Ascentis RP-Amide)
Description: To determine the lipophilicity of the compounds, a methodology based on the retention time of molecules in reverse stationary phase (Ascentis RP-Amide HPLC column) was used. The chromatogram was obtained using LC-MS/MS. Test compounds were prepared at 1.0 μg/mL by adding the stock solution at (1:1) mobile phases A:B + internal standard at 200nM (A: 5% methanol in 10mM ammonium acetate pH 7.4, B: 100% methanol), DMSO concentration must be lower than 2%. […] The retention time (in minutes) of each of the eight standards was plotted against their LogD values. The resulting equation for the calibration curve (y = mx + b) was used to calculate the LogD values for the test compounds.

[5] = system: PMM (Primary Mouse Macrophages); experiment: Cytotoxicity on primary peritoneal mouse macrophages; assay type: cell-based; conditions: read-out: PMM IC50
Description: (§1) Leishmania infantum MHOM/MA(BE)/67/ITMAP263 amastigotes were collected from the spleen of infected donor Golden hamsters. Primary peritoneal mouse macrophages (PMM) were used as host cells for in vitro assays. PMM were collected from Swiss mice after 2 days of peritoneal stimulation with a 2% suspension of potato starch and maintained in RPMI-1640 medium supplemented with 200 mM L-glutamine, antibiotics and 5% FCS at 37°C and 5% CO2. Promastigotes of L. infantum chagasi (luciferase) (MHOM/BR/2005/NLC) obtained as described in Reimão et al.,[27] were grown in M199 medium supplemented with 10% FCS, 0.25% hemin, 32 μg/ml hygromycin and 2% sterile human urine at 25°C and 5% CO2.
(§2) Stock solutions of the compounds at 20 mM were prepared in 100% DMSO. Next, the compounds were serially pre-diluted in DMSO followed by a further dilution in demineralized water to assure a final in-test DMSO concentration below 1%. The compounds were tested at 4-fold dilutions starting at 64 μM.

[6] = system: Leishmania infantum MHOM/MA(BE)/67/ITMAP263 amastigotes; experiment: L. infantum intracellular amastigote assay in PMM; assay type: cell-based; conditions: for SI: selectivity index (CC50 / IC50): CC50 / L. infantum IC50; for pIC50: read-out: L. infantum IC50
Description: as §1, §2
For the antileishmania in vitro assays, 3×10^4 PMM/well were seeded in 96-well plates. After 24h, 5×10^5 amastigotes/well were added and incubated for 2h at 37°C. Next, the compounds in 4-fold serial dilutions were added and the plates were further incubated for 5 days (37°C, 5% CO2). Parasite burdens were assessed using an inverted microscope after Giemsa staining. The results were expressed as percent reduction in parasite burdens compared to negative control wells (100% growth) and IC50 values were determined. Values represent the geometric mean of at least two independent experiments. Miltefosine was used as the positive control in all plates.

[7] = Kinetic solubility; assay type: physicochemical; conditions: for solubility kinetic at 24 h: PBS buffer pH 7.4, aqueous buffer, kinetic from dmso stock, PBS pH 7.4, read-out: KS PBS - pH7.4
Description: The precipitates on the incubation plate were removed by centrifugation (15 min, 3000 rpm, r.t.); the compound concentration in the resulting supernatant was determined by LC-MS/MS. Results were calculated as the concentration of remaining compound in solution after incubation.

[8] = MRC-5 cytotoxicity; assay type: cell-based; conditions: human, MRC-5 cells; S1 Data
[9] = intracellular amastigotes in PMM, 5 days
[10] = Leishmania infantum, 120 h, intracellular amastigotes in PMM, 5 days

CCCn1c(NC(=O)Cc2ccc(F)cc2)nc(c13)cc(C(=O)NC4CC4)cc3 [Compound 12]
PAMPA Pe [1]: 13.10 10-6 cm/s | CC50 [2]: > 64 µM | MLM CLint ([3]; S1 Data): 52 µL/min/mg | eLogD ([4]; S1 Data): 3.50 | eLogD ([4]; experimental, pH 7.4): 3.5 | pIC50 ([5]; S1 Data): < 4.19 | SI: selectivity index (CC50 / IC50) [6]: 1 | pIC50 ([6]; S1 Data): 4.34 | pIC50 [6, 9]: 4.35

O=C(c1cc(nc(NC(=O)Cc2ccc(F)cc2)n3CCC)c3cc1)N4CCCC4 [Compound 13]
PAMPA Pe [1]: 7.92 10-6 cm/s | CC50 [2]: > 64 µM | MLM CLint ([3]; S1 Data): 138 µL/min/mg | eLogD ([4]; S1 Data): 3.99 | eLogD ([4]; experimental, pH 7.4): 4.0 | pIC50 ([5]; S1 Data): < 4.19 | SI: selectivity index (CC50 / IC50) [6]: 6 | pIC50 ([6]; S1 Data): 5.01 | pIC50 [6, 9]: 5.01

O=C(Nc1n(C2CC2)c(c3n1)ccc(F)c3)Cc4ccc(Cl)cc4 [Compound 22]
PAMPA Pe [1]: 17.70 10-6 cm/s | CC50 [2]: 21.9 µM | MLM CLint ([3]; S1 Data): 380 µL/min/mg | eLogD ([4]; S1 Data): 3.98 | pIC50 ([5]; S1 Data): 4.60 | pIC50 ([6]; S1 Data): 5.60

CCCn1c(NC(=O)Cc2ccc(F)cc2)nc(c13)cc(C(=O)OC)cc3 [Compound 9]
PAMPA Pe [1]: 8.66 10-6 cm/s | CC50 [2]: 18.7 µM | MLM CLint ([3]; S1 Data): 1253 µL/min/mg | eLogD ([4]; S1 Data): 4.04 | pIC50 ([5]; S1 Data): 4.80 | SI: selectivity index (CC50 / IC50) [6]: 3 | pIC50 ([6]; S1 Data): 5.19 | pIC50 [6, 9]: 5.19

CCCn1c(NC(=O)Cc2ccc(F)cc2)nc(c13)cc(C(=O)N4CCOCC4)cc3 [Compound 14]
PAMPA Pe [1]: 7.26 10-6 cm/s | CC50 [2]: > 64 µM | MLM CLint ([3]; S1 Data): <23 µL/min/mg | MLM CLint ([3]; mouse liver microsome intrinsic clearance): 23 µL/min/mg | eLogD ([4]; S1 Data): 3.05 | pIC50 ([5]; S1 Data): < 4.19 | SI: selectivity index (CC50 / IC50) [6]: 1 | pIC50 ([6]; S1 Data): 4.24 | pIC50 [6, 9]: 4.24

COCCn1c(NC(=O)c2ccnn2C)nc2ccc(C#N)cc21 [Compound 50, O=C(c1ccnn1C)Nc2nc(ccc(C#N)c3)c3n2CCOC]
solubility kinetic at 24 h [7]: 5.98 µg/mL (≈ 18.4 µM) | KS PBS - pH 2 [7]: 7.77 ug/mL | Papp at 5 h, 10 μM [1]: 14.7 ×10⁻⁶ cm/s | CC50 [8]: > 64 µM | MLM CLint ([3]; S1 Data): 98 µL/min/mg | pIC50 ([5]; Mus musculus, Macrophage): < 4.19 | SI: selectivity index (CC50 / IC50) [6]: 1 | pIC50 [6, 10]: 4.33 | pIC50 ([6]; Leishmania infantum, S1 Data): 4.33

CCCn1c(NC(=O)Cc2ccc(F)cc2)nc(c13)cc(C(=O)NC)cc3 [Compound 11]
PAMPA Pe [1]: 9.18 10-6 cm/s | CC50 [2]: 34.8 µM | MLM CLint ([3]; S1 Data): 66 µL/min/mg | eLogD ([4]; S1 Data): 3.18 | pIC50 ([5]; S1 Data): < 4.19 | SI: selectivity index (CC50 / IC50) [6]: 1 | pIC50 ([6]; S1 Data): < 4.19

CCCn1c(NC(=O)Cc2ccc(F)cc2)nc(c13)cc(C(=O)O)cc3 [Compound 10]
PAMPA Pe [1]: 6.27 10-6 cm/s | CC50 [2]: > 64 µM | eLogD ([4]; S1 Data): 1.83 | pIC50 ([5]; S1 Data): < 4.19 | SI: selectivity index (CC50 / IC50) [6]: 1 | pIC50 ([6]; S1 Data): < 4.19 | L. infantum IC50 [6, 9]: inactive

Cn1nccc1C(=O)Nc1nc2cncnc2n1CC(F)(F)F [Compound 55, O=C(c1ccnn1C)Nc2nc(cncn3)c3n2CC(F)(F)F]
solubility kinetic at 24 h [7]: 65 µg/mL (≈ 200 µM) | KS PBS - pH 2 [7]: 64.44 ug/mL | Papp at 5 h, 10 μM [1]: 13.6 ×10⁻⁶ cm/s | CC50 [8]: 24.8 µM | MLM CLint ([3]; S1 Data): 24 µL/min/mg | pIC50 ([5]; Mus musculus, Macrophage): 5.10 | SI: selectivity index (CC50 / IC50) [6]: 2 | pIC50 [6, 10]: 5.40 | pIC50 ([6]; Leishmania infantum, S1 Data): 5.39

CCCn1c(NC(=O)Cc2ccc(F)cc2)nc2ccccc21 [Compound 2, CCCn1c(nc2c1cccc2)NC(Cc3ccc(cc3)F)=O]
Papp at 5 h, 10 μM [1]: 6.63 ×10⁻⁶ cm/s | CC50 [8]: > 64 µM | microsomal CLint at 0.5 μM [3]: 2760 µL/min/mg | eLogD ([4]; experimental, pH 7.4): 4.0 | chromatographic logD ([4]; pH 7.4, S1 Data): 3.97 | pIC50 ([5]; Mus musculus, Macrophage): 4.49 | SI: selectivity index (CC50 / IC50) [6]: 2 | pIC50 [6, 10]: 4.82 | pIC50 ([6]; Leishmania infantum, S1 Data): 4.83

O=C(Cc1ccc(F)cc1)Nc1nc2cc(F)ccc2n1C1CCOCC1 [Compound 28, Fc1cc(nc(NC(=O)Cc2ccc(F)cc2)n3C4CCOCC4)c3cc1]
Papp at 5 h, 10 μM [1]: 19.6 ×10⁻⁶ cm/s | CC50 [8]: > 64 µM | microsomal CLint at 0.5 μM [3]: 133 µL/min/mg | chromatographic logD ([4]; pH 7.4, S1 Data): 3.32 | pIC50 ([5]; Mus musculus, Macrophage): < 4.19 | pIC50 [6, 10]: 4.89 | pIC50 ([6]; Leishmania infantum, S1 Data): 4.90
